Test system: collagen-antibody induced arthritis
Experiment: collagen-antibody induced arthritis model
Type: in vivo, C57BL6J male mice
Details: administration in collagen-antibody induced arthritis mouse model; summary statement, no details
Description: C57BL6J male mice were injected intraperitoneally with a cocktail of arthritogenic anti-type II collagen (2 mg/mouse) at day 0. At day 3, mice received an injection of lipopolysaccharide from bacterial cells walls of E. coli 055: B5. The severity of arthritis was evaluated every other day on each paw with a score from 0 to 4, for a maximal score of 16 by animal (0=normal joint, 1=moderate redness and slight swelling or swelling of one or two digits, 2=moderate redness and moderate paw swelling or swelling more than three digits, 3=redness and swelling from tarsal joints to metatarsal joints, 4=severe redness and severe swelling of the entire paw). Hindpaw swelling was measured at the same time by plethysmography. Paw volume determined prior to disease induction was used as the baseline. The development of arthritis was analyzed by histological assessment. Hindpaws were dissected then fixed in 4% formalin (Labonord). Hindpaws were further decalcified in 10% EDTA for 1 month and embedded in paraffin blocks. Five μm-thick tissue sections were cut and two stainings were performed, hematoxylin, eosin and toluidine blue. Histological examination was carried out blindly by three independent observers. Synovium from ankle joint was graded on a scale of 0 to 3 (with 0=normal and 3=major changes) for synovial hyperplasia (width of lining layer) and tissue cell infiltration. […]

O=C(O)c1cc(O)c2cccc(O)c2n1 [xanthurenic acid]
arthritis severity: reduces arthritis severity

Reference: patent US20250367269A1, “KYNURENINE AMINOTRANSFERASE AND PRODUCTS THEREOF FOR THE TREATMENT OF ARTHRITIC DISEASES” (Institut National de Recherche Pour L'Agriculture, …, priority 2022, published 2025)
